Experiment [1] has as its system Staphylococcus epidermis ATCC 35984 biofilm. Briefly: MBEC assay (48 h biofilm, CFU log reduction). Format: cell-based, Staphylococcus epidermidis. The settings on record: 20 h treatment, 0.125-1 mM tested. As for the experimental part:
(§1) For the MBEC assay (method 1.3) the solutions need to be diluted to a final concentration of 2 mM in 0.9% saline solution and then further diluted to 1 mM, 0.5 mM, 0.25 mM and 0.125 mM in saline. Those dilutions were added as treatment to the 96 well plates with the grown biofilm (see method 3) (0.5 mL needed for one strain). The dilution must stay transparent.
(§2) Frozen aliquots of Staphylococcus epidermis ATCC 35984 and Pseudomonas aeruginosa ATCC 27853 were used to inoculate 20 mL of Tryptic Soy Broth (TSB) in a 100 mL Erlenmeyer flask at 37° C. and 150 rpm and incubated overnight (Infors). The OD600 of the overnight culture was measured with a spectrophotometer (Evolution™ 201/220 UV-Visible Spectrophotometer, Thermo Fisher Scientific) and diluted to an ( ) 600 of 0.2, which resembles 10^8 CFU/mL. The cell suspension of OD600=0.2 was seeded into a U-bottom-shaped 96 well plates by pipetting 100 μL per well in column 1-11, column 12 was filled with 100 μL medium as sterility control. The 96 well plates were sealed with adhesive polyethylene film for sealing microplates and incubated for 48 h at 37° C. at static conditions. After the biofilm growth phase, 100 μL of treatment solutions (method 1) were added to the vials resulting in treatment concentrations of 1 mM, 0.5 mM, 0.25 mM and 0.125 mM and with the respective concentration of Tween 80 and DMSO each at 0.63%, 0.32%, 0.16% and 0.08%. The same concentration was applied to four different wells of the same bacterial strain, resulting in four replicates for each concentration and strain. The treatment was incubated for 20 h at 37° C. at static conditions. After the treatment the supernatant was carefully removed and the well with the biofilm washed carefully for one time with 200 μL 0.9% saline solution. 200 μL saline solution was added and the biofilm was resuspended thoroughly. When fully homogenized then 20 μl, was used for the first dilution in 180 μL 0.9% saline solution, which was prepared in a second plate. This dilution was continued until dilution step 10E-5 and 100 μL of the 10E-4 and 10E-5 dilution plated on a TSA plate. The TSA plates were incubated at 37° C. for 24 h. The colonies on the plates were enumerated, the colony forming units per ml, of the dispensed biofilm and averages thereof and the log reduction in comparison with the untreated sample from the same wells plate calculated. Reduction of colony forming units goes hand in hand with the thickness of the biofilm and thus with the number bacteria that are present in the biofilm. Therefore, a significant reduction of colony forming units in the biofilm was defined at the value of log reduction >1 or more. This assay was repeated two times in two independent experiments)

Experiment [2] relates to Staphylococcus epidermidis ATCC 35984. Description: MIC assay (growth inhibition of planktonic microorganisms). Format: cell-based. The settings on record: 24 h at 37° C., MHB-II. The method, then: (§3) The exact weighed amount was noted and the volume of solvent to reach a 80 mM dilution calculated. Half of the volume was added first, by adding Tween 80 and let stand for 5 minutes. In a second step, the other half of the volume DMSO was added and resuspended to help the dilution process. The closed tube was inverted 5-10 times and then vortexed very thoroughly for at least 30 seconds. If after this procedure crystals were still visible, the tube was placed in a shaker at 37° C. at 150 rpm for at least 30 minutes (it is indicated if the dissolution period was longer than 2 h). […] In case of Bis(4-Chlorophenyl) thiosulfonate, a lower concentrated stock solution of 2 mM needed to be prepared. For that, the required amount of compound was weighed in and 2% v/v Tween80 and 2% v/v DMSO of the end volume of the stock solution was added to the substance. This mix was heated in a water bath set to 40° C. and occasionally shaken. When the whole amount of the substance reached dissolution, the volume was filled up with growth medium until the end volume. This 2 mM stock solution of Bis(4-Chlorophenyl) thiosulfonate was used in the MIC plate and diluted two-fold, resulting in a testing range of Bis(4-Chlorophenyl) thiosulfonate from 1 mM to 0.002 mM.
(§4) The microorganisms as indicated in Table 4 were used to inoculate a tryptic soy agar (TSA) plate and incubated overnight at 37° C. After incubation 3-5 well-isolated colonies with the same morphology were selected from the TSA plate and resuspended in 2 mL 0.9% saline solution with 3-6 glass beads and vortexed. The optical density at 600 nm (OD600) of the bacterial suspension was measured with a spectrophotometer (Evolution™ 201/220 UV-Visible Spectrophotometer, Thermo Fisher Scientific) and diluted to an OD600 of 0.0008, which resembles 10^6 CFU/mL.
(§5) The MIC assay was performed in a flat-bottom 96-microtiter plate. 50 μL of MHB-II was added into columns 2-11, and 100 μL to column 12 for sterility control. 100 μL of the 8 mM test compound solution (method 1) was added to column 1. A two-fold dilution series of the solution in MHB-II was achieved by resuspending 50 μL of the 8 mM solution from column 1 to column 2. This step was repeated until column 10. The respective concentration of Tween 80 and DMSO in column 1 was 2.5%, which is two-fold diluted throughout the plate. 50 μL of the bacterial suspension was added to column 1-11. The microtiter plates were sealed with adhesive polyethylene film for sealing microplates (Diversified Biotech) and incubated for 24 h at 37° C. After incubation the OD was measured at 600 nm with the Varioskan (Thermo Fisher Scientific). The minimal concentration which causes reduction of final OD600 of the bacterial culture by 50% (MIC50) and by 90% (MIC90) was calculated after normalization of the obtained OD values to the growth control in column 11. This assay was repeated three times in three independent experiments.

Experiment [3] relates to Pseudomonas aeruginosa ATCC 27853. The description is as above. Format: cell-based. The settings on record: 24 h at 37° C., MHB-II. The method, then: as §3, §4, §5
Hereafter, the stock solutions of the compounds were used in three repetitions in a minimal inhibitory concentration (MIC) assay at a 2-fold dilution range with various bacteria from the gram-positive and gram-negative group and a yeast, Candida albicans. The concentrations that show only less than 10% growth after 24 h were considered the MIC90-values, whereas the concentrations that show 50% growth after 24 h when compared to the bacterial growth control were considered the MIC50-values. Escherichia coli and Staphylococcus aureus were used as representatives for a gram-negative bacteria and gram-positive bacteria, respectively. Furthermore, the yeast C. albicans was also tested.
In an Eppendorf tube between 10-20 mg of the test compound was weighed. Hereafter, the required amount of Tween 80 was added, followed by the amount DMSO. After vigorous shaking, the dissolved and transparent dilutions were diluted 10 times with Mueller Hinton Broth (MHB) for the MIC assay. […]

Experiment [4] relates to Pseudomonas aeruginosa ATCC 27853 biofilm. Briefly: MBEC assay (48 h biofilm, CFU log reduction). It counts as cell-based. The settings on record: 20 h treatment, 0.125-1 mM tested. The method, then:
as §1, §2

The test system of experiment [5] is Staphylococcus aureus LUH14616. Description: Resistance development on repeated exposure (19 passages). It counts as cell-based. As for the experimental part: Experimental design. Potential resistance to AM-8 was assessed as described by Habets and Brockhurst (2012) (Therapeutic antimicrobial peptides may compromise natural immunity. Biol Lett 8:416-418). Briefly, log phase bacteria (S. aureus LUH 14616) were diluted in RPMI-mod to a concentration of 2×10^6 CFU/ml. Next, 50 μl of this bacterial suspension were mixed with 50 μl of a range of dilutions of AM-8 or—as comparator-rifampicin in v-bottom 96-wells plates. Thereafter, the plates were covered with a plastic seal and incubated for 24 hrs at 37° C. in a shaking incubator (200 rpm). The plates were then centrifuged for 5 min at 2,000 rpm and the growth inhibition was determined. To start the resistance development testing, 100 μl of a mid-log bacterial suspension containing 2×10^6 CFU/ml were mixed with 150 μl of RPMI-mod and 5 μl of this diluted bacterial suspension were applied to v-bottom wells containing a dilution range of AM-8 or antibiotics (various concentrations below and above MIC) in RPMI-mod (RPMI 1640 modified with 20 mM Hepes and L-glutamine and without sodium bicarbonate (Sigma-Aldrich); further referred to as RPMI-mod). After 24 hrs at 37° C. in a shaking incubator (200 rpm) the growth inhibition was determined. 100 μl of the bacterial suspension from the 0.5×MIC wells were mixed with 150 μl of RPMI-mod and 5 μl of the diluted bacterial suspension were used to inoculate a new 96-wells plate containing a dilution series of AM-8 or rifampicin, and these mixtures were then incubated as described above. If resistance developed, the concentration range of AM-8 and/or antibiotic was adjusted accordingly. This was repeated 19 times. Results are expressed as the fold-increase in MIC compared to the MIC at the start of the experiment.

Where [6] appears, read: reduction of final OD600 by 50%.
Where [7] appears, read: reduction of final OD600 by 90%.

This note sets out measurements from patent publication US20260083126A1, “ANTIMICROBIAL COMPOSITIONS” (AHV International B.V., priority 2022, published 2026).

In the case of `[O-][S+](Sc1ccc(Cl)cc1)c1ccc(Cl)cc1` (stereo not drawn) [Bis (4-chlorophenyl) thiosulfinate, Bis(4-chlorophenyl) thiosulfinate], in experiment [1], the “S. epidermidis MBEC mM with log reduction ≥1” value was greater than 1 mM. Moreover, the “S. epidermidis MIC50” value in experiment [2] (setting [6]) stood at 0.02 mM. Besides, the “S. epidermidis MIC90” value in experiment [2] (setting [7]) turned out to be 0.02 mM. Besides, the “P. aeruginosa MIC50” value in experiment [3] (setting [6]) is reported as 0.02 mM. Besides, the “P. aeruginosa MIC90” value in experiment [3] (setting [7]) is 0.02 mM. Besides, the “P. aeruginosa MBEC mM with log reduction ≥1” value in experiment [4] is greater than 1 mM.

The MIC50 is an inhibitory concentration at the 50% level, which refers to growth in some studies and to a panel of isolates in others. In general, MIC90 refers to the lowest concentration that inhibits either 90% of growth or 90% of the strains tested, depending on the study. As to `CC(C)SSC(C)C` [Di-isopropyl disulfide, reference compound], the “S. epidermidis MBEC mM with log reduction ≥1” value in experiment [1] is greater than 1 mM. The MIC50 is greater than 4 mM in experiment [2] (Staphylococcus epidermidis, ATCC35984, reduction of final OD600 by 50%, read-out: S. epidermidis MIC50) and greater than 4 mM in experiment [3] (Pseudomonas aeruginosa, ATCC27853, 24 h, reduction of final OD600 by 50%, read-out: P. aeruginosa MIC50). The MIC90 is greater than 4 mM in experiment [2] (Staphylococcus epidermidis, ATCC35984, reduction of final OD600 by 90%, read-out: S. epidermidis MIC90) and greater than 4 mM in experiment [3] (Pseudomonas aeruginosa, ATCC27853, reduction of final OD600 by 90%, read-out: P. aeruginosa MIC90). The “P. aeruginosa MBEC mM with log reduction ≥1” value in experiment [4] is greater than 1 mM.

In the case of `CO[C@H]1/C=C/O[C@@]2(C)Oc3c(C)c(O)c4c(O)c(c(/C=N/N5CCN(C)CC5)c(O)c4c3C2=O)NC(=O)/C(C)=C\C=C\[C@H](C)[C@H](O)[C@@H](C)[C@@H](O)[C@@H](C)[C@H](OC(C)=O)[C@@H]1C` [rifampicin, reference compound], the “fold-increase in MIC compared to the MIC at the start” value in experiment [5] (after passage 10) is 146 fold; in experiment [5] (after the last passage) it was greater than 292 fold; in experiment [5] (at passages 4-5), 10 fold.
